Consider 4 molecules from publication PMC10348910, “Epigenetic reprogramming of cell cycle genes by ACK1 promotes breast cancer resistance to CDK4/6 inhibitor” (Oncogene, 2023).

The test system of data set [1] is advanced ER+/AR+ breast cancer. More on the design: method as in NCT00755885. The note with it: ref NCT00755885, cited from earlier work.
A further data set relates to AR+ TNBC. More on the design: method as in PMID 29373071, PMID 25944485. The note with it: cited from earlier work.
The next data set has as its system MDA-MB-468 xenografts. The data set can be described thus: MDA-MB-468 xenograft in mammary fat pad. Type of data set: in vivo, female SCID mice. The protocol:
To validate these findings in breast tumors, MDA-MB-468 cells were injected in female SCID mice. Once palpable tumors were formed (5 weeks), mice were treated with vehicle (6% captisol), palbociclib (80 mg/Kg of body weight), (R)-9b (36 mg/Kg of body weight) by oral route, or (R)-9b (24 mg/Kg of body weight) by subcutaneous injection, five times a week.
Fig. 7 ACK1 inhibitor overcomes palbociclib-resistant breast cancer growth and metastasis. A 3 × 10^6 MDA-MB-468 cells were injected in the 4th inguinal mammary fat pad of female SCID mice. Once the tumors were palpable, the mice were treated with either vehicle (Captisol; n = 7), Palbociclib at 80 mg/kg (n = 6), or (R)-9b at 36 mg/Kg (n = 6) orally. In addition, mice were injected with (R)-9b at 24 mg/Kg (n = 7) subcutaneously. Mice were treated five times a week, for 22 days. B, C The tumors were harvested and photographed, and the weights were recorded. D Vehicle or (R)-9b treated breast cancer cells were subjected to ChIP using pY88-H4 antibody, followed by qPCR for CXCR4 gene. E CXCR4 mRNA transcript levels in vehicle or (R)-9b treated MDA-MB-231 cells. 18S rRNA was used as housekeeping gene. F MDA-MB-231 cells were transfected with ACK1 or scrambled siRNA, followed by qRT-PCR to determine CXCR4 mRNA transcript levels. G Representative lung metastatic deposits of MDA-MB-231 cells injected via the tail veins in female SCID mice, treated with either vehicle or 24 mg/Kg (R)-9b orally. H Graphical quantitation of lung metastatic deposit. I and J 5 × 10^5 luciferase expressing 4T1 cells were injected into 4th inguinal mammary fat pad of female BALB/c mice. Once the tumors were palpable, mice were treated with either vehicle or (R)-9b at 24 mg/Kg (n = 3, each) subcutaneously for 2 weeks, five times a week. The metastases were assessed using IVIS. Data are represented as the mean ± SEM. *p < 0.05; **p < 0.01; ***p < 0.001. For (A, C–F, I), p values were calculated using unpaired two-tailed Student’s t test.
All animal experiments were performed using the standards for humane care in accordance with the NIH Guide for the Care and Use of Laboratory Animals. Mice were obtained from Charles River Laboratories and experiments were performed according to IACUC protocols (IACUC # 20180259) approved in writing by Washington University in St. Louis Department of Comparative Medicine (DCM). 1.5 × 10^6 Cal-148 or MCF7, or 3 × 10^6 MDA-MB-468 cells were suspended in 200 µl of PBS with 50% matrigel (BD Biosciences) and were implanted subcutaneously into the mammary fat pad (between fourth and fifth inguinal) of female SCID C.B17 mice (n = 8 per group). Once the tumors were palpable (about 4–5 weeks), mice were randomly chosen for subcutaneous injection (Cal-148 and MCF7; 24 mg/Kg body weight) or given oral gavage with (R)-9b (MCF7; 36 mg/Kg body weight) resuspended in 6% Captisol (or 6% Captisol in PBS as vehicle), five times a week, for 4–5 weeks. Tumor volumes were measured twice a week using calipers. At the end of the study, all mice were humanely euthanized, tumors extracted and weighed.

For the next data set, the system named is BT549. The data set can be described thus: proliferation assay, trypan blue exclusion. Type of data set: cell-based. To be noted: BT549 (lacking Rb), 96 h. The protocol: (§1) A–F Breast cancer cells were treated with either vehicle or (R)-9b for 48 h; cells were harvested and processed for cell cycle analysis using propidium iodide staining, followed by flow cytometry. G BT549 and H MDA-MB-468 cells were treated with varying drug concentrations of palbociclib or (R)-9b for 96 h and the cell viability assessed using trypan blue exclusion method. I BT549, and J MDA-MB-468 cells were treated with 1 µM palbociclib or (R)-9b for 48 h and subjected to cell cycle analysis using propidium iodide staining, followed by flow-cytometry. Palbociclib-resistant MDA-MB-231 (K) and HCC-1395 (L) were generated and treated with varying drug concentrations of palbociclib or (R)-9b for 96 h and the cell viability assessed using trypan blue exclusion method.
(§2) For proliferation assay, 5 × 10^4 cells were plated in 6-well plate and treated with either vehicle (DMSO) or varying concentrations of (R)-9b or palbociclib in complete media for 96 h and number of viable cells were counted by trypan blue exclusion assay. Breast cancer cell lines were treated with vehicle or varying concentrations of (R)-9b for 72 h. The cells were harvested, washed 2 times with PBS and incubated with 3 ul of Annexin V-FITC antibody according to the manufacturers protocol (BD Biosciences). Five µl Propidium iodide was used to stain necrotic cells. The cells were acquired using the BD FACSCalibur machine (BD Biosciences) and data was analyzed using FlowJo software. Cell cycle analysis was performed as mentioned earlier. Briefly, vehicle or (R)-9b (48 h) treated cells were harvested by trypsinization, washed 2 times with PBS, and fixed using chilled 70% Ethanol for 1 h, followed by 2 washes with PBS. The cell pellets were treated with 50 µl RNase A (100 µg/ml; Sigma) for 15 min at 37 °C and Propidium Iodide (PI; 50 µg/ml, Sigma) was added to these cells, followed by acquisition using BD FACS Canto-II or FACSCalibur machines. The data were analyzed using FlowJo software.

The subject of the next data set is MDA-MB-468. The data set can be described thus: proliferation assay, trypan blue exclusion. The note with it: MDA-MB-468 (lacking Rb), 96 h. Type of data set: cell-based. As for the experimental part: as §1, §2
Data set [2] in a line: in vitro. To be noted: rat.
Data set [3] can be described thus: in vitro. The note with it: human.
For data set [4] the following is noted: human, plasma.

As to `C[C@]12CC[C@H](O)CC1=CC[C@@H]1[C@@H]2CC[C@]2(C)C(c3cccnc3)=CC[C@@H]12` [abiraterone], the clinical benefit rate in data set [1] (in 24 weeks) was 20%. In addition, the “median progression-free survival duration” value in data set [1] is listed as 2.8 months.

Take `CNC(=O)c1ccc(N2C(=S)N(c3ccc(C#N)c(C(F)(F)F)c3)C(=O)C2(C)C)cc1F` [enzalutamide]: the clinical benefit rate in the data set on AR+ TNBC (at 16 weeks) is given as 33%. Further, in the data set on AR+ TNBC, the “median progression-free survival duration” value is on record as 3.3 months.

Consider `CC(=O)c1c(C)c2cnc(Nc3ccc(N4CCNCC4)cn3)nc2n(C2CCCC2)c1=O` [palbociclib, reference compound], for which, in the data set on MDA-MB-468 xenografts (palbociclib 80 mg/Kg oral, (R)-9b 36 mg/Kg oral or 24 mg/Kg subcutaneous, five times a week, 3 weeks), the xenograft tumor growth entry is listed as “robust tumor growth”. Moreover, the “weights of the mice” value with MDA-MB-468 xenografts (palbociclib 80 mg/Kg, (R)-9b 36 mg/Kg oral or 24 mg/Kg subcutaneous) was “modest decrease in weights”. Further, the “histology (H&E) of heart, spleen, kidneys and livers” value with MDA-MB-468 xenografts (palbociclib 80 mg/Kg, (R)-9b oral and subcutaneous) is “did not reveal histological abnormalities”. Further, the “sensitivity (cell proliferation)” value in the data set with BT549 and in the data set on MDA-MB-468 was “resistant” in each case.

As for `CC(=O)CC(c1ccccc1)c1c(O)c2ccccc2oc1=O` (stereo not shown) [warfarin], the figures for the recovery in the data set “in vitro [2]” (% Recovery) and in the data set “in vitro [3]” (% Recovery) were 86.7% and 92.3%, respectively. The fraction unbound at 6 h in the data set “in vitro [2]” (plasma, % Bound) was 0.0069; in “in vitro [2]” (plasma, % Unbound), 0.0069. Besides, the fraction remaining at 6 h is 88.2% in the data set “in vitro [2]” (plasma, % Remaining at 6 hr) and 97.8% in “in vitro [3]” (plasma, % Remaining at 6 hr). Further, the fraction unbound was 0.0147 in the data set “in vitro [3]” (plasma, % Bound) and 0.0147 in the data set “in vitro [3]” (plasma, % Unbound). The “% Bound” value in data set [4] amounted to 98.53%. In data set [4], the “% Unbound” value was 1.47%.
